Results published in ChEMBL document CHEMBL1201862, “PubChem BioAssay data set” (2004).
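Compound exposure: 48 hours, 5 concentrations, 96-well plates. Here, GI50 denotes the concentration required for 50% inhibition of growth.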 Activity calls are given as the source filed them. No stated cut-off is given here; in the data, active = GI50 up to about 1.1 µM and inactive = higher.

What was measured:
Experiment in all cases: NCI-60 cell line screen, 48 h
SF-268 = tested on: SF-268
MDA-MB-231 = tested on: MDA-MB-231
LOX IMVI = tested on: LOX IMVI
SN12C = tested on: SN12C
SNB-19 = tested on: SNB-19
U-251 = tested on: U-251
IGROV-1 = tested on: IGROV-1
ACHN = tested on: ACHN
CCRF-CEM = tested on: CCRF-CEM
SW-620 = tested on: SW-620
HL-60 = tested on: HL-60
SNB-75 = tested on: SNB-75
DU-145 = tested on: DU-145
SK-MEL-2 = tested on: SK-MEL-2
NCI-H23 = tested on: NCI-H23
UO-31 = tested on: UO-31
MDA-MB-435 = tested on: MDA-MB-435
HCC 2998 = tested on: HCC 2998
K562 = tested on: K562
Malme-3M = tested on: Malme-3M

Row | SMILES | GI50 (SF-268) | GI50 (MDA-MB-231) | GI50 (LOX IMVI) | GI50 (SN12C) | GI50 (SNB-19) | GI50 (U-251) | GI50 (IGROV-1) | GI50 (ACHN) | GI50 (CCRF-CEM) | GI50 (SW-620) | GI50 (HL-60) | GI50 (SNB-75) | GI50 (DU-145) | GI50 (SK-MEL-2) | GI50 (NCI-H23) | GI50 (UO-31) | GI50 (MDA-MB-435) | GI50 (HCC 2998) | GI50 (K562) | GI50 (Malme-3M)
1 | O=C1/C(=C/c2ccc3c(c2)OCO3)Sc2scc(-c3ccc(O)c(O)c3)[n+]21 | 3.9 µM (inactive) | 3.54 µM (inactive) | 2.34 µM (inactive) | 2.04 µM (inactive) | 10.7 µM (inactive) | 4.62 µM (inactive) | 2.7 µM (inactive) | 1.86 µM (inactive) | 0.264 µM (active) | 1.99 µM (inactive) | 0.325 µM (active) | 0.644 µM (active) | 4.44 µM (inactive) | 10.8 µM (inactive) | 2.69 µM (inactive) | 2.29 µM (inactive) | 3.3 µM (inactive) | 1.82 µM (inactive) | 0.506 µM (active) | –
2 | CC#CCOC(=O)c1ccccc1OC(C)=O | > 100 µM (inactive) | > 100 µM (inactive) | > 100 µM (inactive) | > 100 µM (inactive) | > 100 µM (inactive) | > 100 µM (inactive) | > 100 µM (inactive) | > 100 µM (inactive) | > 100 µM (inactive) | > 100 µM (inactive) | 72.1 µM (inactive) | > 100 µM (inactive) | > 100 µM (inactive) | > 100 µM (inactive) | > 100 µM (inactive) | > 100 µM (inactive) | > 100 µM (inactive) | > 100 µM (inactive) | > 100 µM (inactive) | –
3 | CN(O)C(=O)c1cccc(Cl)c1 | > 100 µM (inactive) | > 100 µM (inactive) | > 100 µM (inactive) | > 100 µM (inactive) | > 100 µM (inactive) | > 100 µM (inactive) | 91.8 µM (inactive) | > 100 µM (inactive) | 60 µM (inactive) | > 100 µM (inactive) | 10.2 µM (inactive) | > 100 µM (inactive) | > 100 µM (inactive) | > 100 µM (inactive) | > 100 µM (inactive) | > 100 µM (inactive) | > 100 µM (inactive) | > 100 µM (inactive) | > 100 µM (inactive) | –
4 | N#Cc1sc2c(c1OC(=O)c1ccco1)c(=O)n(-c1ccccc1)c(=S)n2-c1ccccc1 | 32.4 µM (inactive) | 26.5 µM (inactive) | 16.2 µM (inactive) | 27.8 µM (inactive) | 36.4 µM (inactive) | 25.3 µM (inactive) | > 10 µM (inactive) | – | > 10 µM (inactive) | 17.7 µM (inactive) | 67.5 µM (inactive) | 18.8 µM (inactive) | 48.5 µM (inactive) | 28.8 µM (inactive) | 34.8 µM (inactive) | 16 µM (inactive) | 27.7 µM (inactive) | 55.7 µM (inactive) | 15 µM (inactive) | 22.2 µM (inactive)
5 | O=c1oc2ccccc2cc1P(=O)(O)O | > 100 µM (inactive) | > 100 µM (inactive) | > 100 µM (inactive) | > 100 µM (inactive) | > 100 µM (inactive) | > 100 µM (inactive) | > 100 µM (inactive) | > 100 µM (inactive) | > 100 µM (inactive) | > 100 µM (inactive) | > 100 µM (inactive) | > 100 µM (inactive) | > 100 µM (inactive) | > 100 µM (inactive) | > 100 µM (inactive) | – | > 100 µM (inactive) | > 100 µM (inactive) | > 100 µM (inactive) | > 100 µM (inactive)
6 | COc1cc2oc(=O)ccc2cc1C(=O)CC(C)C | 99.3 µM (inactive) | > 100 µM (inactive) | > 100 µM (inactive) | > 100 µM (inactive) | 56.1 µM (inactive) | > 100 µM (inactive) | > 100 µM (inactive) | > 100 µM (inactive) | > 100 µM (inactive) | > 100 µM (inactive) | 39.2 µM (inactive) | 78.7 µM (inactive) | > 100 µM (inactive) | > 100 µM (inactive) | > 100 µM (inactive) | > 100 µM (inactive) | > 100 µM (inactive) | > 100 µM (inactive) | > 100 µM (inactive) | –
7 | C1=CN2C[n+]3cccc(OCc4ccccc4)c3N=C2C(OCc2ccccc2)=C1 | 6.25 µM (inactive) | 16.8 µM (inactive) | 20.8 µM (inactive) | 3.43 µM (inactive) | 5.18 µM (inactive) | 4.51 µM (inactive) | 11.5 µM (inactive) | > 100 µM (inactive) | – | 11.9 µM (inactive) | 0.142 µM (active) | 20.1 µM (inactive) | 6.92 µM (inactive) | 11.7 µM (inactive) | 10.3 µM (inactive) | > 100 µM (inactive) | 14.4 µM (inactive) | 5.83 µM (inactive) | < 0.01 µM (active) | 12.3 µM (inactive)
8 | CCC(C)C1(O)OC2CC3(C)OC(=CC3=O)/C(C)=C\C3OC(=O)C1(C)C32 (centres undefined) | 13.9 µM (inactive) | 19.1 µM (inactive) | 14.7 µM (inactive) | 11.8 µM (inactive) | 33.7 µM (inactive) | 27.5 µM (inactive) | 18.8 µM (inactive) | 9.14 µM (inactive) | 4.83 µM (inactive) | 3.37 µM (inactive) | 3.12 µM (inactive) | 37.2 µM (inactive) | 4.68 µM (inactive) | 21.3 µM (inactive) | 5.53 µM (inactive) | 17.8 µM (inactive) | 11.9 µM (inactive) | 15.2 µM (inactive) | 7.6 µM (inactive) | –
9 | [N-]=[N+]=Nc1cc(=O)n2c3c(cccc13)CCC2 | > 100 µM (inactive) | > 100 µM (inactive) | > 100 µM (inactive) | > 100 µM (inactive) | – | > 100 µM (inactive) | > 100 µM (inactive) | > 100 µM (inactive) | > 100 µM (inactive) | > 100 µM (inactive) | > 100 µM (inactive) | > 100 µM (inactive) | > 100 µM (inactive) | – | > 100 µM (inactive) | > 100 µM (inactive) | > 100 µM (inactive) | > 100 µM (inactive) | > 100 µM (inactive) | > 100 µM (inactive)
10 | O=C1N(CN2CCOCC2)CN(CN2CCOCC2)C(=O)N1Cc1ccc(CN2C(=O)N(CN3CCOCC3)CN(CN3CCOCC3)C2=O)cc1 | 28.4 µM (inactive) | 57.9 µM (inactive) | 23.9 µM (inactive) | 59.8 µM (inactive) | 97.7 µM (inactive) | 44.9 µM (inactive) | > 100 µM (inactive) | 41.8 µM (inactive) | 62.1 µM (inactive) | 43 µM (inactive) | 60.1 µM (inactive) | 89.7 µM (inactive) | 45.8 µM (inactive) | 20.6 µM (inactive) | 34.4 µM (inactive) | 44.4 µM (inactive) | 26.4 µM (inactive) | > 100 µM (inactive) | – | –
11 | C=C(C)CNC(=S)N(N)c1ccc(OC)cc1 | 55.3 µM (inactive) | > 100 µM (inactive) | > 100 µM (inactive) | 66.8 µM (inactive) | > 100 µM (inactive) | > 100 µM (inactive) | 58.6 µM (inactive) | 39.2 µM (inactive) | 94 µM (inactive) | > 100 µM (inactive) | > 100 µM (inactive) | 99.8 µM (inactive) | > 100 µM (inactive) | – | > 100 µM (inactive) | 52.6 µM (inactive) | 54.8 µM (inactive) | > 100 µM (inactive) | 39.6 µM (inactive) | > 100 µM (inactive)
12 | O=C(O)Cn1ccc(=O)c2cc([N+](=O)[O-])ccc21 | > 100 µM (inactive) | 19.4 µM (inactive) | – | > 100 µM (inactive) | > 100 µM (inactive) | > 100 µM (inactive) | > 100 µM (inactive) | > 100 µM (inactive) | > 100 µM (inactive) | > 100 µM (inactive) | > 100 µM (inactive) | > 100 µM (inactive) | 38.1 µM (inactive) | > 100 µM (inactive) | > 100 µM (inactive) | > 100 µM (inactive) | > 100 µM (inactive) | > 100 µM (inactive) | > 100 µM (inactive) | > 100 µM (inactive)
13 | Nc1nc(Cl)cc(Nc2ccc3c(c2)CCC3)n1 | > 100 µM (inactive) | 52 µM (inactive) | 56.5 µM (inactive) | 80.2 µM (inactive) | > 100 µM (inactive) | > 100 µM (inactive) | 41.5 µM (inactive) | > 100 µM (inactive) | 44.3 µM (inactive) | 85.1 µM (inactive) | 37.2 µM (inactive) | – | > 100 µM (inactive) | > 100 µM (inactive) | > 100 µM (inactive) | > 100 µM (inactive) | > 100 µM (inactive) | 65 µM (inactive) | 32.7 µM (inactive) | > 100 µM (inactive)
14 | C[C@@](O)(/C=C/[C@H]1CC=CC(=O)O1)[C@@H](C[C@@H](O)\C=C/C=C\C=C\CO)OP(=O)(O)O [FOSTRIECIN SODIUM] | 16.4 µM (inactive) | 22.3 µM (inactive) | 2.16 µM (inactive) | 9.33 µM (inactive) | 32.3 µM (inactive) | 17.1 µM (inactive) | 5.14 µM (inactive) | 4.51 µM (inactive) | 2.12 µM (inactive) | 9.29 µM (inactive) | 1.1 µM (active) | – | 3.21 µM (inactive) | 11.2 µM (inactive) | 10.2 µM (inactive) | 11 µM (inactive) | 1.28 µM (inactive) | 4.28 µM (inactive) | 1.6 µM (inactive) | 4.74 µM (inactive)
